Reference: patent US7772428B2, “Creatine hydroxycitric acids salts and methods for their production and use in individuals” (Northern Innovations and Formulations, priority 2005, dated 2010)
Read-outs that look alike come from different tables or passages of the source.

How the values were obtained:
[1] = in vivo
[2] = daily doses of about 20 g of creatine for 5-7 days; cited from earlier work
[3] = Stability (in water and acidic solutions); conditions: stated in words, Example 1
Bioavailability = conditions: stated in words, Example 1
ATP citrate lyase = target: T1, ATP citrate lyase (Homo sapiens, UniProt P53396); conditions: cited from earlier work
T1 sequence (P53396 1-1101): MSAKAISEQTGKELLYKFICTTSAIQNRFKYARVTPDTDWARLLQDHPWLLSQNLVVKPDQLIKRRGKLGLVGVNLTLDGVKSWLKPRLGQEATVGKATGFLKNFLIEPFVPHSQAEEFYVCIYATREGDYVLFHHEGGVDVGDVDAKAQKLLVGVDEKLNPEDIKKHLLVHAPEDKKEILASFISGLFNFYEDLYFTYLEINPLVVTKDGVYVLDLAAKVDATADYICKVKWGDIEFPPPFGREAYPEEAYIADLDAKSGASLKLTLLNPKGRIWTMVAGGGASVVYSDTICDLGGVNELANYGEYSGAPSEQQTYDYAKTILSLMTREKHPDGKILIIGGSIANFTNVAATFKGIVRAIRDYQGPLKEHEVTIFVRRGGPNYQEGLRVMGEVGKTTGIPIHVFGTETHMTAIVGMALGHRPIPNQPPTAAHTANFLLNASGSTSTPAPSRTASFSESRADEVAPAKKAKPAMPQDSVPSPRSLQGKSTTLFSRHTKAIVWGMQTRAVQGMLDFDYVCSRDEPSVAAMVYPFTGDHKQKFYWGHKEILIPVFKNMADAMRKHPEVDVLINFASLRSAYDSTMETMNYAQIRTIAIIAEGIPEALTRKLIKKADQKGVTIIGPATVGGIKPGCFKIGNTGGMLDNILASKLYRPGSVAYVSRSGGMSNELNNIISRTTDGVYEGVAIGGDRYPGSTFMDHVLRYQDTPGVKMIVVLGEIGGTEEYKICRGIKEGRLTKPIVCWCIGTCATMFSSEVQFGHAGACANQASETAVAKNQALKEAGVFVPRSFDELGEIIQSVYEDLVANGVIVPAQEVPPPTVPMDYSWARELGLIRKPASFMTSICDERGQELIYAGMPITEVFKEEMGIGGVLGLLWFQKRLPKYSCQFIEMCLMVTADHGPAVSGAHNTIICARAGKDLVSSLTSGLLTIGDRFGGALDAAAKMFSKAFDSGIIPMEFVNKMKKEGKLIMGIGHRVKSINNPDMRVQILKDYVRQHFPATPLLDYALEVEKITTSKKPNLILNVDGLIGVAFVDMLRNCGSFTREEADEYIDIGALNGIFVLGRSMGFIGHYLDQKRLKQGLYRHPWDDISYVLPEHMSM

| Compound | stability [3] | bioavailability (Bioavailability) | further results |
| --- | --- | --- | --- |
| CN(CC(=O)O)C(=N)N.O.O=C([O-])CC(O)(C(=O)[O-])C(O)C(=O)O.[K+].[K+] (stereo not shown) [(Mono)-creatine dipotassium hydroxycitrate monohydrate] |  |  | bioavailability [1]: bioavailable |
| CN(CC(=O)O)C(=N)N [creatine] |  |  | increase of total creatine content in the muscle [2]: 10-25% |
| Tricreatine hydroxycitrate monohydrate | stable | bioavailable |  |
| CN(CC(=O)O)C(=N)N.CN(CC(=O)O)C(=N)N.O.O=C(O)CC(O)(C(=O)O)C(O)C(=O)[O-].[K+] (stereo not shown) [Dicreatine (mono) potassium hydroxycitrate monohydrate] | stable | bioavailable |  |
| O=C(O)CC(O)(C(=O)O)C(O)C(=O)O (stereo not shown) [Hydroxycitric acid] |  |  | activity of ATP citrate lyase (ATP citrate lyase): inhibit |
